Laboratory results as given in patent publication US20070166547A1, “Use of a layer consisting of hydrophobic linear, or two-dimensional polycyclic aromatics as a barrier layer or an encapsulation and electric components constructed with a layer of this type and comprising organic polymers” (priority 2003, published 2007).

Columns and labels:
[1] = tested on: adenosine-sensitive receptors of thrombocytes; test: ADP-induced aggregation of thrombocytes in vitro (Born method); type: cell-based, rabbit; conditions: 3 min incubation, ADP 10^−5 M
Protocol: The compounds according to the invention were studied for the effect of aggregation of thrombocytes induced by a preliminary introduction of a solution of an aggregation inductor with a competing introduction of the compounds according to the invention.
The aggregation of thrombocytes was studied by the Born method based on determination of the changes in the optical density of plasma enriched with thrombocytes after its incubation with an aggregation inductor.
Adenozinediphosphoric acid (ADP) was selected as an aggregation inductor, which in fact is an aggregation generator. Use was made of a sample (registration number 885) of the Sigma Diagnostics Company (USA) in final concentration of 10^−5 M.
The experiments were carried out on male rabbits of the “Chinchilla” breed having a mass of 2.7±0.3 kg. 18-24 hours prior to the experiment they were deprived of feed while preserving free access to water.
To obtain plasma enriched with thrombocytes, blood was taken from a cut of a marginal vein of the rabbit ear, the sample was stabilized with 3.8% of sodium citrate solution in a ratio of 9:1 and centrifuged at 200 g (1000 rev/min) for 10 minutes. The top supernatant layer enriched with thrombocytes was transferred by an automatic dropper into a silicone test tube and kept at 37° C. The plasma enriched with thrombocytes contained, on the average, […]. If this content exceeded the specified 3×10^8 blood platelets in 1 liter, this sample was diluted to the necessary concentration with plasma deprived of thrombocytes, which was obtained by centrifuging blood at 650 g during 10 minutes.
The measurements of the optical density of the samples were made on two-channel aggregometer of the “Chronolog” Company (USA). A flask containing 490 mkl of plasma rich with thrombocytes was placed in a device, into which a magnetic agitator covered with Teflon was lowered. The index of maximum amplitude of aggregation (MA) in percent of a fall of the plasma optical density under effect of the aggregation inductor was recorded. The control index MA of plasma was compared with the MA of plasma incubated for 3 minutes with different concentrations of the compounds: from 10^−3 to 10^−7 in vitro experiments or with plasma obtained 15, 30, 60 and 120 minutes after intravenous administration of different doses of the compounds in vivo experiments.
The process of aggregation of thrombocytes was recorded with the help of a computer; on the monitor screen the there were depicted curves reflecting changes of the optical density of the plasma enriched which was taken as a standard 100% compared to the optical density of the non-thrombocyte plasma taken for 0% content of thrombocytes.
Under in vitro conditions a flask was filled with blood plasma enriched with thrombocytes, to which an aggregation inductor ADP was added at a concentration of 10^−5 M, incubated for 3 minutes, and then the compounds according to the invention were introduced directly into the flask. Their action by aggregation of thrombocytes was studied after 3-minute incubation in a wide range of concentrations from 10^−3 to 10^−7 M to minimum concentration of 10^−7 M not inducing no effect of suppressing the aggregation.

[2] = tested on: synthase of nitrogen oxide (NOC); test: Morphine abstinence model: activity of synthase of nitrogen oxide (radiometric, [3H]L-citrulline); type: in vivo, rats Wistar; conditions: morphine alone
[3] = tested on: thymus; test: Morphine abstinence model: thymus condition; type: in vivo, rats; conditions: morphine alone
Protocol: The effect of the compounds according to the invention on the condition of the thymus of the rats was also investigated: a control group, an experimental group of morphinized animals and an experimental group of animals were first morphinized and then injected with the compounds according to the invention. The experiment was carried out similarly to that described above.

[4] = Polarographic study of electrochemical reduction (electrochemical activity); type: physicochemical; conditions: for i, mkA (polarographic wave current) / −E1/2, V (half-wave potential vs SCE): 37° C., forward trace, average for the group; for i, mkA (polarographic wave current): 9·10^−4 M
Protocol: The study was carried out on a general-purpose polarograph PU-1 with a two-coordinate recorder of the “LKD” type using a three-electrode thermostatically controlled polarographic cell and mercury dripping electrode (MDE) with forced separation of the drop and a dropping period of 0.5 second. A platinum wire was used as an auxiliary electrode and a saturated calomel electrode (SCE) was used as a control electrode.
2.0% solutions of sodium chloride having pH 7.0, 7.2, 7.4, 7.6 were used as a background; the pH values of the background solution were corrected by a solution of sodium hydroxide. The polarographic cell was filled with 5.0 ml of the background solution and for 5 minutes was purged with nitrogen for removing the dissolved oxygen. Then 0.5 ml of solution of the studied substance was added to the background solution, and the polarogram was recorded as a polarographic wave. The concentration of the compounds in the polarographic cell was 9·10^−4 M.
The pH was measured on the pH-meter with an accuracy of ±0.05 pH units. The polarographic measurements were carried out at a temperature of 37° C. The recording of polarograms of the investigated materials was effected under conditions of DC current at a scanning rate of the potential 10.0 mV/s with a active scanning stroke from a potential 0 to −0.5 V and sweep retrace from a −0.5 V to 0. The electric-current sensitivity was 5.0 mkA. The scale by the coordinate of the potentials was 50.0 mV/cm. The values of potentials of the half-wave E1/2 of the investigated materials are given with respect to the SCE potential.
The polarogram parameters such as a limiting current ilim and E1/2 were determined by the graphic method. The number of electrons participating in the reaction was calculated on the basis of the analysis of the polarographic wave using the Geirovsky-Ilkovich equation.

Compound	MA - fall of optical density of plasma, % to the standard ([1]; 10^−3 M) [%]	MA - fall of optical density of plasma, % to the standard ([1]; 10^−4 M) [%]	MA - fall of optical density of plasma, % to the standard ([1]; 10^−5 M) [%]	MA - drop of optical density, % compared to control ([1]; 10^−6 M) [%]	MA - drop of optical density, % compared to control ([1]; 10^−7 M) [%]	other results
Nc1ncnc2c(=O)n([C@@H]3O[C@H](CO)[C@@H](O)[C@H]3O)[nH]c(=O)c12.[Na] [Compound 31, sodium salt of 4-amino-7-(β-D-ribofuranosile)pyrimido[4,5-d]-6H-pyridazine-5,8-dione]	44.9 ± 2.3	46.7 ± 2.2	39.9 ± 2.1	47.5 ± 1.7	49.5 ± 1.2	
O=c1[nH]n([C@@H]2O[C@H](CO)[C@@H](O)[C@H]2O)c(=O)c2nccc(O)c12.[Na].[Na] [Compound 4, disodium salt of 4-hydroxy-7-(βD-ribofuranosile)pyrido[2,3-d]-6H-pyridazine-5,8-dione]	49.2 ± 2.3	50.2 ± 2.0	46.2 ± 3.1	50.6 ± 3.1	49.9 ± 3.4	
Nc1cnc2c(=O)[nH][nH]c(=O)c2n1.[Na] [Compound 28, sodium salt of 2-amino-pyrazine[2,3-d]-6H-pyridazine-5,8-dione]	49.7 ± 2.2	48.9 ± 2.4	44.2 ± 2.7		50.4 ± 3.0	
O=c1[nH]n([C@@H]2O[C@H](CO)[C@@H](O)[C@H]2O)c(=O)c2ccccc12.[Na] [Compound 9, sodium salt of 2-(β-D-ribofuranosile)benzo[d]-3H-pyridazine-1,4-dione]	47.3 ± 2.0	53.1 ± 1.8	41.4 ± 3.4	49.4 ± 3.2	51.2 ± 1.7	
CN1CC[C@]23c4c5ccc(O)c4O[C@H]2[C@@H](O)C=C[C@H]3[C@H]1C5 [Morphine, reference compound]						activity of the calcium-dependent form NOC in the liver [2]: rise of activity of the calcium-dependent form NOC; activity of the calcium-independent form NOC in the liver [2]: decrease of activity of the calcium-independent form NOC; Nitrites, thymus Supernatant, Administration of morphine [3]: 0.511 ± 0.05 nmol/mg of protein; Thymus mass, Administration of morphine [3]: 145 ± 9 mg
sodium salt of 5-amino-2-(CP(β-D-ribofuranosile)benzo[d]-3H-pyridazine-1,4-dione [Compound 10]	46.2 ± 2.7	48.7 ± 2.4	40.2 ± 4.0	48.4 ± 2.4	49.8 ± 2.0	number of electrons participating in the reduction ([4]; calculated with the Geirovsky-Ilkovich equation): 4.09; i, mkA (polarographic wave current) ([4]; pH 7.0): 0.23 ± 0.03 mkA; −E1/2, V (half-wave potential vs SCE) ([4]; pH 7.0): 0.092 ± 0.02 V; i, mkA (polarographic wave current) ([4]; pH 7.2): 0.30 ± 0.01 mkA; −E1/2, V (half-wave potential vs SCE) ([4]; pH 7.2): 0.09 ± 0.01 V; i, mkA (polarographic wave current) ([4]; pH 7.4): 0.29 ± 0.02 mkA; −E1/2, V (half-wave potential vs SCE) ([4]; pH 7.4): 0.092 ± 0.02 V; i, mkA (polarographic wave current) ([4]; pH 7.6): 0.31 ± 0.02 mkA; −E1/2, V (half-wave potential vs SCE) ([4]; pH 7.6): 0.09 ± 0.01 V; half-wave potential more positive on reverse stroke than on forward stroke ([4]; reverse stroke vs forward stroke): 30.0 mV
